Measurements as given in EP0160578A1, “1,8-Naphthyridine derivatives” (DAIICHI SEIYAKU CO., LTD., priority 1984, dated 1985).
In brackets after ≈: the same amount, converted by molar mass.

Tests used:
Test in all cases: Antibacterial activity, dilution method in Muller-Hinton Bouillon (MIC)
Format in all cases: cell-based
[1] = test system: Str. faecalis, ATCC19433; details: Enterococcus faecalis, 10^6/ml bacteria, 37°C, 18 hours, read-out: Minimal Inhibitory Concentration (MIC)
Protocol: (§1) The antibacterial activity of the compounds of the present invention was determined by the standard method of the Japan Society of Chemotherapy: according to the dilution method in Muller-Hinton Bouillon, 10^6/ml of bacteria were seeded and incubated at 37°C for 18 hours.

[2] = test system: Ps. aeruginosa, 2128; details: Pseudomonas aeruginosa, 10^6/ml bacteria, 37°C, 18 hours, read-out: Minimal Inhibitory Concentration (MIC)
Protocol: as §1

[3] = test system: E. coli, NIHJ; details: Escherichia coli, 10^6/ml bacteria, 37°C, 18 hours, read-out: Minimal Inhibitory Concentration (MIC)
Protocol: as §1

[4] = test system: S. aureus, Smith; details: Staphylococcus aureus, 10^6/ml bacteria, 37°C, 18 hours, read-out: Minimal Inhibitory Concentration (MIC)
Protocol: as §1

[5] = test system: Ps. aeruginosa, 2063; details: Pseudomonas aeruginosa, 10^6/ml bacteria, 37°C, 18 hours, read-out: Minimal Inhibitory Concentration (MIC)
Protocol: as §1

[6] = test system: S. epidermis, 56556; details: 10^6/ml bacteria, 37°C, 18 hours, read-out: Minimal Inhibitory Concentration (MIC)
Protocol: as §1

[7] = test system: Pr. vulgaris, 3167; details: Proteus vulgaris, 10^6/ml bacteria, 37°C, 18 hours, read-out: Minimal Inhibitory Concentration (MIC)
Protocol: as §1

[8] = test system: Ps. cepacia, IID1340; details: Burkholderia cepacia, 10^6/ml bacteria, 37°C, 18 hours, read-out: Minimal Inhibitory Concentration (MIC)
Protocol: as §1

[9] = test system: Sh. flexneri, 2a5503; details: Shigella flexneri, 10^6/ml bacteria, 37°C, 18 hours, read-out: Minimal Inhibitory Concentration (MIC)
Protocol: as §1

[10] = test system: Ps. maltophilia, IID1275; details: Stenotrophomonas maltophilia, 10^6/ml bacteria, 37°C, 18 hours, read-out: Minimal Inhibitory Concentration (MIC)
Protocol: as §1

[11] = test system: Pr. mirabilis, 1287; details: Proteus mirabilis, 10^6/ml bacteria, 37°C, 18 hours, read-out: Minimal Inhibitory Concentration (MIC)
Protocol: as §1

[12] = test system: Str. pyogenes, G-36; details: Streptococcus pyogenes, G36, 10^6/ml bacteria, 37°C, 18 hours, read-out: Minimal Inhibitory Concentration (MIC)
Protocol: as §1

[13] = test system: Ser. marcescens, 13001; details: Serratia marcescens, 10^6/ml bacteria, 37°C, 18 hours, read-out: Minimal Inhibitory Concentration (MIC)
Protocol: as §1

[14] = test system: Ps. aeruginosa, 2131; details: Pseudomonas aeruginosa, 10^6/ml bacteria, 37°C, 18 hours, read-out: Minimal Inhibitory Concentration (MIC)
Protocol: as §1

CCn1cc(C(=O)O)c(=O)c2cc(F)c(N3CCNCC3)nc21 [Control Compound, 1-ethyl-6-fluoro-7-(1-piperazinyl)-1,4-dihydro-4-oxo-1,8-naphthyridine-3-carboxylic acid, reference compound] gave an MIC [1] of 6.25 µg/mL (≈ 19.5 µM), an MIC [2] of 0.78 µg/mL (≈ 2.44 µM) and an MIC [3] of 0.2 µg/mL (≈ 0.624 µM). For the same molecule, the MIC [4] was 0.78 µg/mL (≈ 2.44 µM), the MIC [5] was 0.78 µg/mL (≈ 2.44 µM) and the MIC [6] was 0.78 µg/mL (≈ 2.44 µM). The MIC [7] was 0.2 µg/mL (≈ 0.624 µM), the MIC [8] was 50 µg/mL (≈ 156 µM) and the MIC [9] was 0.2 µg/mL (≈ 0.624 µM). It also gave an MIC [10] of 0.78 µg/mL (≈ 2.44 µM), an MIC [11] of 0.2 µg/mL (≈ 0.624 µM) and an MIC [12] of 25 µg/mL (≈ 78 µM). It also gave an MIC [13] of 0.2 µg/mL (≈ 0.624 µM) and an MIC [14] of 0.2 µg/mL (≈ 0.624 µM).
O=C(O)c1cn(C2CC2)c2nc(N3CCNCC3)c(F)cc2c1=O [No. 1, 1-cyclopropyl-6-fluoro-7-(1-piperazinyl)-1,4-dihydro-4-oxo-1,8-naphthyridine-3-carboxylic acid] gave an MIC [1] of 1.56 µg/mL (≈ 4.69 µM), an MIC [2] of 0.1 µg/mL (≈ 0.301 µM) and an MIC [3] of at most 0.05 µg/mL. The MIC [4] was 0.39 µg/mL (≈ 1.17 µM), the MIC [5] was 0.1 µg/mL (≈ 0.301 µM) and the MIC [6] was 0.39 µg/mL (≈ 1.17 µM). The MIC [7] was at most 0.05 µg/mL, the MIC [8] was 3.13 µg/mL (≈ 9.42 µM) and the MIC [9] was at most 0.05 µg/mL. For the same molecule, the MIC [10] was 0.78 µg/mL (≈ 2.35 µM), the MIC [11] was at most 0.05 µg/mL and the MIC [12] was 6.25 µg/mL (≈ 18.8 µM). For the same molecule, the MIC [13] was at most 0.05 µg/mL and the MIC [14] was 0.1 µg/mL (≈ 0.301 µM).
NC1CCN(c2nc3c(cc2F)c(=O)c(C(=O)O)cn3C2CC2)C1 (stereo not shown) [No. 2, 1-cyclopropyl-6-fluoro-7-(3-amino-1-pyrrolidinyl)-1,4-dihydro-4-oxo-1,8--naphthyridine-3-carboxylic acid] gave an MIC [1] of 0.39 µg/mL (≈ 1.17 µM), an MIC [2] of at most 0.05 µg/mL and an MIC [3] of at most 0.05 µg/mL. For the same molecule, the MIC [4] was 0.1 µg/mL (≈ 0.301 µM), the MIC [5] was at most 0.05 µg/mL and the MIC [6] was 0.1 µg/mL (≈ 0.301 µM). The MIC [7] was at most 0.05 µg/mL, the MIC [8] was 0.39 µg/mL (≈ 1.17 µM) and the MIC [9] was at most 0.05 µg/mL. The MIC [10] was 0.39 µg/mL (≈ 1.17 µM), the MIC [11] was at most 0.05 µg/mL and the MIC [12] was 0.78 µg/mL (≈ 2.35 µM). For the same molecule, the MIC [13] was at most 0.05 µg/mL and the MIC [14] was 0.1 µg/mL (≈ 0.301 µM).
Work on O=C(O)c1cn(C2CC2)c2nc(N3CCC(O)C3)c(F)cc2c1=O (stereo not drawn) [No. 3, l-cyclopropyl-6-fluoro-7-(3-hydroxy-l-pyrrolidinyl)-1,4-dihydro-4-oxo-1,8-naphthyridine-3-carboxylic acid] yielded an MIC [1] of 0.39 µg/mL (≈ 1.17 µM), an MIC [2] of 0.39 µg/mL (≈ 1.17 µM) and an MIC [3] of at most 0.05 µg/mL. The MIC [4] was at most 0.05 µg/mL, the MIC [5] was 0.39 µg/mL (≈ 1.17 µM) and the MIC [6] was 0.1 µg/mL (≈ 0.3 µM). For the same molecule, the MIC [7] was at most 0.05 µg/mL, the MIC [8] was 0.39 µg/mL (≈ 1.17 µM) and the MIC [9] was at most 0.05 µg/mL. The MIC [10] was 0.39 µg/mL (≈ 1.17 µM), the MIC [11] was at most 0.05 µg/mL and the MIC [12] was 1.56 µg/mL (≈ 4.68 µM). For the same molecule, the MIC [13] was 0.1 µg/mL (≈ 0.3 µM) and the MIC [14] was 0.78 µg/mL (≈ 2.34 µM).
CN1CCN(c2nc3c(cc2F)c(=O)c(C(=O)O)cn3C2CC2)CC1 [No. 4, 1-cyclopropyl-6-fluoro-7-(4-methyl-1-piperazinyl)-1,4-dihydro-4-oxo-1,8-naphthyridine-3-carboxylic acid] was tested, and the MIC [1] was 3.13 µg/mL (≈ 9.04 µM), the MIC [2] was 0.2 µg/mL (≈ 0.577 µM) and the MIC [3] was at most 0.05 µg/mL. The MIC [4] was 0.2 µg/mL (≈ 0.577 µM), the MIC [5] was 0.39 µg/mL (≈ 1.13 µM) and the MIC [6] was 0.39 µg/mL (≈ 1.13 µM). The MIC [7] was at most 0.05 µg/mL, the MIC [8] was 1.56 µg/mL (≈ 4.5 µM) and the MIC [9] was at most 0.05 µg/mL. It also gave an MIC [10] of 0.39 µg/mL (≈ 1.13 µM), an MIC [11] of at most 0.05 µg/mL and an MIC [12] of 6.25 µg/mL (≈ 18 µM). It also gave an MIC [13] of at most 0.05 µg/mL and an MIC [14] of 0.39 µg/mL (≈ 1.13 µM).
O=C(O)c1cn(C2CC2)c2nc(N3CCCNCC3)c(F)cc2c1=O [No. 5, 1-cyclopropyl-6-fluoro-7-(1-homopiperazinyl)-1,4-dihydro-4-oxo-1,8-naphthyridine-3-carboxylic acid] gave an MIC [1] of 6.25 µg/mL (≈ 18 µM), an MIC [2] of 0.1 µg/mL (≈ 0.289 µM) and an MIC [3] of at most 0.05 µg/mL. For the same molecule, the MIC [4] was 0.39 µg/mL (≈ 1.13 µM), the MIC [5] was 0.2 µg/mL (≈ 0.577 µM) and the MIC [6] was 0.39 µg/mL (≈ 1.13 µM). It also gave an MIC [7] of at most 0.05 µg/mL, an MIC [8] of 0.78 µg/mL (≈ 2.25 µM) and an MIC [9] of at most 0.05 µg/mL. The MIC [10] was 1.56 µg/mL (≈ 4.5 µM), the MIC [11] was 0.1 µg/mL (≈ 0.289 µM) and the MIC [12] was 12.5 µg/mL (≈ 36.1 µM). The MIC [13] was 0.1 µg/mL (≈ 0.289 µM) and the MIC [14] was 0.2 µg/mL (≈ 0.577 µM).
In the case of CN1CCCN(c2nc3c(cc2F)c(=O)c(C(=O)O)cn3C2CC2)CC1 [No. 6, 1-cyclopropyl-6-fluoro-7-(N-methyl-1-homopiperazinyl)-1,4-dihydro-4-oxo-1,8-naphthyridine-3-carboxylic acid], the MIC [1] is reported as 6.25 µg/mL (≈ 17.3 µM), the MIC [2] is reported as 0.39 µg/mL (≈ 1.08 µM) and the MIC [3] is reported as at most 0.05 µg/mL. It also gave an MIC [4] of 0.39 µg/mL (≈ 1.08 µM), an MIC [5] of 0.78 µg/mL (≈ 2.16 µM) and an MIC [6] of 0.39 µg/mL (≈ 1.08 µM). For the same molecule, the MIC [7] was 0.1 µg/mL (≈ 0.277 µM), the MIC [8] was 0.78 µg/mL (≈ 2.16 µM) and the MIC [9] was 0.1 µg/mL (≈ 0.277 µM). For the same molecule, the MIC [10] was 0.39 µg/mL (≈ 1.08 µM), the MIC [11] was 0.2 µg/mL (≈ 0.555 µM) and the MIC [12] was 6.25 µg/mL (≈ 17.3 µM). For the same molecule, the MIC [13] was 0.2 µg/mL (≈ 0.555 µM) and the MIC [14] was 0.78 µg/mL (≈ 2.16 µM).
CC1CN(c2nc3c(cc2F)c(=O)c(C(=O)O)cn3C2CC2)CCN1 (stereo not shown) [No. 7, 1-cyclopropyl-6-fluoro-7-(3-methyl-1-piperazinyl)-1,4-dihydro-4-oxo-1,8--naphthyridine-3-carboxylic acid] showed an MIC [1] of 3.13 µg/mL (≈ 9.04 µM), an MIC [2] of 0.2 µg/mL (≈ 0.577 µM) and an MIC [3] of at most 0.05 µg/mL. It also gave an MIC [4] of 0.39 µg/mL (≈ 1.13 µM), an MIC [5] of 0.2 µg/mL (≈ 0.577 µM) and an MIC [6] of 0.78 µg/mL (≈ 2.25 µM). For the same molecule, the MIC [7] was at most 0.05 µg/mL, the MIC [8] was 0.39 µg/mL (≈ 1.13 µM) and the MIC [9] was at most 0.05 µg/mL. It also gave an MIC [10] of 0.39 µg/mL (≈ 1.13 µM), an MIC [11] of 0.1 µg/mL (≈ 0.289 µM) and an MIC [12] of 1.56 µg/mL (≈ 4.5 µM). For the same molecule, the MIC [13] was at most 0.05 µg/mL and the MIC [14] was 0.1 µg/mL (≈ 0.289 µM).
